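All cell lines were grown in 96-well plates and treated with compound for 48 hours. The concentration for 50% growth inhibition is given as GI50.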 Active and inactive are the calls of the source. Rule as the data show it: active = GI50 up to about 1.1 µM and inactive = higher.
Columns and labels:
Assay in all cases: growth of human tumour cells (NCI), 48 h
Hs-578T = tested on: Hs-578T
CCRF-CEM = tested on: CCRF-CEM
M14 = tested on: M14
HOP-92 = tested on: HOP-92
OVCAR-3 = tested on: OVCAR-3
NCI-H226 = tested on: NCI-H226
DU-145 = tested on: DU-145
PC-3 = tested on: PC-3
SN12C = tested on: SN12C
MCF7 = tested on: MCF7
SK-MEL-5 = tested on: SK-MEL-5
TK-10 = tested on: TK-10
SF-268 = tested on: SF-268
SF-539 = tested on: SF-539
UACC-257 = tested on: UACC-257
HCT-15 = tested on: HCT-15
SK-MEL-28 = tested on: SK-MEL-28
RXF 393 = tested on: RXF 393
SR = tested on: SR
OVCAR-8 = tested on: OVCAR-8
EKVX = tested on: EKVX
T47D = tested on: T47D
SK-OV-3 = tested on: SK-OV-3
OVCAR-4 = tested on: OVCAR-4
ACHN = tested on: ACHN
MDA-MB-231 = tested on: MDA-MB-231
HCT-116 = tested on: HCT-116
COLO 205 = tested on: COLO 205
HCC 2998 = tested on: HCC 2998
K562 = tested on: K562
NCI-H460 = tested on: NCI-H460
MOLT-4 = tested on: MOLT-4
NCI-H522 = tested on: NCI-H522
OVCAR-5 = tested on: OVCAR-5
HOP-62 = tested on: HOP-62
U-251 = tested on: U-251
A498 = tested on: A498
A549 = tested on: A549
KM12 = tested on: KM12
MDA-N = tested on: MDA-N
NCI/ADR-RES = tested on: NCI/ADR-RES
NCI-H23 = tested on: NCI-H23
CAKI-1 = tested on: CAKI-1
IGROV-1 = tested on: IGROV-1
HT-29 = tested on: HT-29
UO-31 = tested on: UO-31
BT-549 = tested on: BT-549
SF-295 = tested on: SF-295
786-0 = tested on: 786-0
SK-MEL-2 = tested on: SK-MEL-2
RPMI-8226 = tested on: RPMI-8226
UACC-62 = tested on: UACC-62
Malme-3M = tested on: Malme-3M
MDA-MB-435 = tested on: MDA-MB-435
HL-60 = tested on: HL-60
SNB-19 = tested on: SNB-19
LOX IMVI = tested on: LOX IMVI
SNB-75 = tested on: SNB-75
SW-620 = tested on: SW-620

Measured: GI50

O=c1[nH]cc(/N=C/c2cc(Cl)ccc2O)c(=O)[nH]1
inactive: Hs-578T 47.2 µM | CCRF-CEM 2.26 µM | M14 13.8 µM | HOP-92 11.2 µM | OVCAR-3 17.5 µM | NCI-H226 19.2 µM | DU-145 21.6 µM | PC-3 8.83 µM | SN12C 9.04 µM | MCF7 17.7 µM | SK-MEL-5 20.1 µM | TK-10 > 100 µM | SF-268 5.62 µM | SF-539 1.89 µM | UACC-257 58.7 µM | SK-MEL-28 13.6 µM | RXF 393 81.7 µM | SR 1.85 µM | OVCAR-8 4.35 µM | EKVX 32.1 µM | T47D 14.8 µM | SK-OV-3 18.7 µM | OVCAR-4 2.18 µM | ACHN 13.7 µM | MDA-MB-231 19.6 µM | HCT-116 9.02 µM | COLO 205 25.3 µM | HCC 2998 23.6 µM | K562 7.26 µM | NCI-H460 48.8 µM | MOLT-4 3.88 µM | NCI-H522 31.7 µM | OVCAR-5 22.4 µM | HOP-62 20.6 µM | U-251 8.05 µM | A498 > 100 µM | A549 > 100 µM | KM12 26.2 µM | MDA-N 37.8 µM | NCI/ADR-RES 13.1 µM | NCI-H23 19 µM | CAKI-1 30.3 µM | IGROV-1 7.83 µM | HT-29 31.3 µM | UO-31 29.6 µM | BT-549 4.84 µM | SF-295 14.1 µM | 786-0 22 µM | SK-MEL-2 19.1 µM | RPMI-8226 5.93 µM | UACC-62 21.9 µM | Malme-3M 25.1 µM | MDA-MB-435 29.1 µM | HL-60 4.71 µM | SNB-19 20.7 µM
2.22 µM: HCT-15

COC(=O)NC(C(F)(F)F)(C(F)(F)F)P1(=O)OCCCO1
22.8 µM: HCT-15
inactive: Hs-578T 37.4 µM | CCRF-CEM 12.6 µM | M14 24.8 µM | HOP-92 35.8 µM | OVCAR-3 28.3 µM | LOX IMVI 16.4 µM | NCI-H226 16.2 µM | DU-145 53.8 µM | PC-3 25.4 µM | SN12C 34.8 µM | MCF7 31.3 µM | SK-MEL-5 17.6 µM | TK-10 37.4 µM | SF-268 25.7 µM | SF-539 21.1 µM | SK-MEL-28 35.6 µM | RXF 393 2.74 µM | SR 20.7 µM | OVCAR-8 27.3 µM | T47D 20.4 µM | SK-OV-3 18.9 µM | OVCAR-4 32.6 µM | ACHN 21.4 µM | MDA-MB-231 25.3 µM | HCT-116 23.2 µM | COLO 205 23 µM | K562 22.9 µM | SNB-75 47.6 µM | NCI-H460 30.2 µM | MOLT-4 17.1 µM | NCI-H522 14.5 µM | OVCAR-5 26.1 µM | HOP-62 21.6 µM | U-251 13.1 µM | SW-620 20.7 µM | A498 17 µM | A549 38.5 µM | KM12 22.8 µM | MDA-N 23.2 µM | NCI/ADR-RES 39.4 µM | NCI-H23 20.2 µM | IGROV-1 22.3 µM | HT-29 23.8 µM | UO-31 18.3 µM | BT-549 22.1 µM | SF-295 23.7 µM | 786-0 36.9 µM | RPMI-8226 18.1 µM | UACC-62 15 µM | MDA-MB-435 17.2 µM | HL-60 16.6 µM | SNB-19 25.5 µM

CCCCc1ccc(Nc2nc3c(ncn3C3OC(COC(C)=O)C(OC(C)=O)C3OC(C)=O)c(=O)[nH]2)cc1 (centres undefined)
inactive: Hs-578T 22.9 µM | CCRF-CEM 16.3 µM | M14 20.6 µM | HOP-92 16.1 µM | OVCAR-3 15.3 µM | LOX IMVI 18.5 µM | NCI-H226 21.1 µM | DU-145 31.3 µM | PC-3 19.7 µM | SN12C 24.2 µM | MCF7 23 µM | SK-MEL-5 17.4 µM | TK-10 45.3 µM | SF-268 19.4 µM | SF-539 26.2 µM | UACC-257 18.9 µM | RXF 393 19.1 µM | SR 13.5 µM | OVCAR-8 18.4 µM | EKVX 36.7 µM | T47D 13.7 µM | SK-OV-3 27 µM | OVCAR-4 21.9 µM | ACHN 65 µM | MDA-MB-231 16.7 µM | HCT-116 17.1 µM | COLO 205 17.6 µM | HCC 2998 20.7 µM | K562 15.1 µM | NCI-H460 18.3 µM | MOLT-4 18.7 µM | NCI-H522 18 µM | OVCAR-5 79.6 µM | HOP-62 17.8 µM | U-251 21 µM | SW-620 25.1 µM | A498 > 100 µM | A549 92.7 µM | KM12 18.4 µM | MDA-N 19.5 µM | NCI/ADR-RES > 100 µM | NCI-H23 17.4 µM | CAKI-1 > 100 µM | IGROV-1 17.5 µM | HT-29 19.1 µM | UO-31 > 100 µM | BT-549 17.8 µM | SF-295 21.2 µM | 786-0 17.2 µM | SK-MEL-2 15.7 µM | RPMI-8226 20.4 µM | UACC-62 19 µM | Malme-3M 19.4 µM | MDA-MB-435 19.9 µM | HL-60 26.2 µM | SNB-19 27.7 µM
> 100 µM: HCT-15

CNC(=O)c1cc(NC(=O)N(CCC#N)CCN(C(=O)N[C@@H](Cc2ccccc2)C(=O)N[C@@H](CC(C)C)C(=O)NC)c2ccccc2)ccc1OC
inactive: Hs-578T 58.7 µM | CCRF-CEM > 66.1 µM | M14 > 93.3 µM | HOP-92 20.9 µM | OVCAR-3 > 65.8 µM | LOX IMVI 49.3 µM | NCI-H226 > 100 µM | DU-145 > 54.8 µM | PC-3 > 80 µM | SN12C > 51.6 µM | MCF7 > 76 µM | SK-MEL-5 29.9 µM | TK-10 > 72.6 µM | SF-268 34.2 µM | SF-539 36 µM | UACC-257 19.5 µM | SK-MEL-28 29.3 µM | RXF 393 > 54.6 µM | SR 21 µM | OVCAR-8 > 91.2 µM | EKVX > 100 µM | T47D > 47.6 µM | SK-OV-3 > 100 µM | OVCAR-4 > 100 µM | ACHN > 74.8 µM | MDA-MB-231 > 38.3 µM | HCT-116 > 63.7 µM | COLO 205 > 100 µM | SNB-75 49.3 µM | NCI-H460 15.8 µM | MOLT-4 49.4 µM | OVCAR-5 > 100 µM | HOP-62 > 100 µM | U-251 > 100 µM | SW-620 > 100 µM | A498 > 49.5 µM | A549 > 100 µM | KM12 > 62.1 µM | MDA-N > 100 µM | NCI/ADR-RES > 100 µM | NCI-H23 > 100 µM | CAKI-1 > 81.1 µM | IGROV-1 24.4 µM | HT-29 > 100 µM | UO-31 > 52 µM | BT-549 > 69.5 µM | SF-295 > 79.3 µM | 786-0 > 55.2 µM | SK-MEL-2 31.8 µM | RPMI-8226 56.8 µM | UACC-62 23.2 µM | Malme-3M 17.3 µM | MDA-MB-435 > 100 µM | HL-60 23.2 µM | SNB-19 > 59.2 µM
> 100 µM: HCT-15

CCCOC1OC(CS(=O)(=O)O)C(OC(C)=O)C(OC(C)=O)C1OC(C)=O (centres undefined)
inactive: Hs-578T > 100 µM | CCRF-CEM > 100 µM | M14 > 100 µM | HOP-92 > 100 µM | OVCAR-3 > 100 µM | LOX IMVI > 100 µM | NCI-H226 > 100 µM | DU-145 > 100 µM | PC-3 > 100 µM | SN12C > 100 µM | MCF7 > 100 µM | SK-MEL-5 > 100 µM | TK-10 > 100 µM | UACC-257 > 100 µM | SK-MEL-28 > 100 µM | RXF 393 > 100 µM | SR > 100 µM | OVCAR-8 > 100 µM | T47D > 100 µM | SK-OV-3 > 100 µM | OVCAR-4 > 100 µM | MDA-MB-231 > 100 µM | HCT-116 > 100 µM | COLO 205 > 100 µM | HCC 2998 > 100 µM | K562 > 100 µM | SNB-75 > 100 µM | NCI-H460 > 100 µM | MOLT-4 > 100 µM | OVCAR-5 > 100 µM | HOP-62 > 100 µM | U-251 > 100 µM | SW-620 > 100 µM | A498 > 100 µM | KM12 > 100 µM | MDA-N > 100 µM | NCI/ADR-RES > 100 µM | NCI-H23 > 100 µM | CAKI-1 > 100 µM | IGROV-1 > 100 µM | HT-29 > 100 µM | UO-31 > 100 µM | BT-549 > 100 µM | SF-295 > 100 µM | SK-MEL-2 > 100 µM | RPMI-8226 > 100 µM | UACC-62 > 100 µM | Malme-3M > 100 µM | MDA-MB-435 > 100 µM | HL-60 > 100 µM | SNB-19 > 100 µM
> 100 µM: HCT-15

Source: ChEMBL document CHEMBL1201862, “PubChem BioAssay data set” (2004)
